Key:
[1] = Measurement of light fastness (residual rate after ultraviolet irradiation); assay type: physicochemical; conditions: for Evaluation of light fastness: 5 mg in acetonitrile 20 ml, 1 cm quartz cell, ultraviolet light 3 J/cm^2, residual rate by liquid chromatography; for light fastness (in words): based on the results in Table 1
Protocol: Each (5 mg) of the compounds was dissolved in acetonitrile (20 ml), sealed in a 1 cm quartz cell, and the quartz cell was irradiated with ultraviolet light under a condition of 3 J/cm^2 using EXECURE 3000-W manufactured by HOYA-SCHOTT CORPORATION, so that a residual rate of each compound was measured. Amounts (masses) of each compound before and after light irradiation were calculated using liquid chromatography. In the table, “A” represents a residual rate of equal to or greater than 80%, “B” represents a residual rate of equal to or greater than 50% and less than 80%, and “C” represents a residual rate of less than 50%.

[2] = Solubility measurement in ethyl methyl ketone; assay type: physicochemical; conditions: concentration (% by mass) of compound completely dissolved in ethyl methyl ketone
Protocol: Ethyl methyl ketone was added dropwise to each of the compounds, and a concentration (% by mass) of the compound in the obtained ethyl methyl ketone solution in a case where the compound was completely dissolved in the solution was measured as “solubility”. It is intended that a higher numerical value of solubility indicates excellent solubility in ethyl methyl ketone.

Row | light fastness (in words) [1] | Solubility (MEK) [2] [%] | SMILES | Evaluation of light fastness [1]
1 | excellent in light fastness | 2 | C=CC(=O)OCCCCOc1ccc(C#Cc2ccc(NC(=O)C(=O)Nc3ccc(C#Cc4ccc(OCCCCOC(=O)C=C)cc4)cc3C(F)(F)F)c(C(F)(F)F)c2)cc1 [Compound a-1] | A (residual rate of equal to or greater than 80%)
2 | excellent in light fastness | 14 | C=CC(=O)OCCCCOc1ccc(C#Cc2cc(C)c(NC(=O)C(=O)Nc3ccc(C#Cc4ccc(OCCCCOC(=O)C=C)cc4)cc3C(F)(F)F)c(C)c2)cc1 [Compound a-2] | A (residual rate of equal to or greater than 80%)

Row | SMILES | light fastness (in words) [1] | Solubility (MEK) [2] [%] | Evaluation of light fastness [1]
3 | C=CC(=O)OCCCCCCOc1ccc(C(=O)Oc2ccc(C#Cc3ccc(CCCCCCC)cc3)cc2)cc1 [Comparative Compound b-1, reference compound] | does not satisfy the desired requirement for light fastness |  | C (residual rate of less than 50%)

Reference: US10907099B2, “Compound, composition, cured object, optically anisotropic body, and reflective film” (FUJIFILM Corporation, priority 2016, dated 2021)
